Reference: ChEMBL document CHEMBL3352242, “Structure-based design of substituted piperidines as a new class of highly efficacious oral direct Renin inhibitors” (ACS Med Chem Lett, 2014)
Active and inactive are the calls of the source. The calls are words filed in the database; no cut-off is given here.

Legend:
[1] = Lipophilicity, logD of the compound at pH 6.8; type: physicochemical; conditions: buffer
[2] = Volume of distribution at steady state in Sprague-Dawley rat at 2 mg/kg, iv; type: ADME, organism-based; design: dose 2 mg/kg, route intravenous; conditions: in vivo, read-out: Vdss
Rattus norvegicus [3] = test: Dose normalized AUC (infinity) in Sprague-Dawley rat at 6 mg/kg, po; type: ADME, organism-based; design: dose 6 mg/kg, route oral; conditions: in vivo
Rattus norvegicus [4] = test: Dose normalized Cmax inSprague-Dawley rat at 6 mg/kg, po; type: ADME, organism-based, Sprague-Dawley; design: dose 6 mg/kg, route oral; conditions: in vivo
[5] = Clearance in Sprague-Dawley rat at 2 mg/kg, iv; type: ADME, organism-based; design: dose 2 mg/kg, route intravenous; conditions: in vivo
[6] = Half life in Sprague-Dawley rat at 2 mg/kg, iv; type: ADME, organism-based; design: dose 2 mg/kg, route intravenous; conditions: in vivo
[7] = Oral bioavailability in Sprague-Dawley rat at 6 mg/kg; type: ADME, organism-based; conditions: in vivo
[8] = Clearance in human liver microsomes; type: ADME; conditions: read-out: CLH
[9] = target: Voltage-gated inwardly rectifying potassium channel KCNH2 (Homo sapiens, UniProt Q12809); test: Displacement of [3H]dofetilide from human ERG expressed in HEK293 cell membranes incubated for 90 mins by beta-counting method
Renin [10] = target: T1, Renin (Homo sapiens, UniProt P00797); test: Inhibition of human recombinant renin in presence of human plasma using Ac- IHPFHL-VIHNK-(DY-505-X5)-COOH substrate by fluorimetric assay
T1 sequence (P00797 whole entry): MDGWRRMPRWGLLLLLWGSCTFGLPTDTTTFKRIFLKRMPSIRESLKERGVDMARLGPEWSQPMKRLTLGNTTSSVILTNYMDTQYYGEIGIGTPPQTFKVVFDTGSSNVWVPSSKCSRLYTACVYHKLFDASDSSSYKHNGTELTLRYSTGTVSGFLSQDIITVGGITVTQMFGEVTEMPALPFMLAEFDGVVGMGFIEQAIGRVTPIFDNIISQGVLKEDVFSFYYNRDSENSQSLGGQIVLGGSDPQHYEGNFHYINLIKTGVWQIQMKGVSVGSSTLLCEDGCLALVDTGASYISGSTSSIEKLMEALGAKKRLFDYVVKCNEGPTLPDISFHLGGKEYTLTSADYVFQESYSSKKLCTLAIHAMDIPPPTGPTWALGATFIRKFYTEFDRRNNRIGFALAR

Renin [11] = target: T1, Renin; test: Inhibition of human recombinant renin using fluorescence-quenched RE(EDANS)IHPFHLVIHTK(Dabcyl)R substrate by fluorimetric assay
[12] = Clearance in rat liver microsomes; type: ADME; conditions: read-out: CLH
Rattus norvegicus [13] = test: Reduction in mean arterial pressure in human renin and human angiotensinogen double transgenic rat at 1 to 100 mg/kg, po; type: functional, organism-based; conditions: Artery
Rattus norvegicus [14] = test: Reduction in mean arterial pressure in human renin and human angiotensinogen double transgenic rat at 100 mg/kg, po after 42 hrs; type: functional, organism-based; design: dose 100 mg/kg; conditions: Artery

Voltage-gated inwardly rectifying potassium channel KCNH2, sequence (Q12809 whole entry): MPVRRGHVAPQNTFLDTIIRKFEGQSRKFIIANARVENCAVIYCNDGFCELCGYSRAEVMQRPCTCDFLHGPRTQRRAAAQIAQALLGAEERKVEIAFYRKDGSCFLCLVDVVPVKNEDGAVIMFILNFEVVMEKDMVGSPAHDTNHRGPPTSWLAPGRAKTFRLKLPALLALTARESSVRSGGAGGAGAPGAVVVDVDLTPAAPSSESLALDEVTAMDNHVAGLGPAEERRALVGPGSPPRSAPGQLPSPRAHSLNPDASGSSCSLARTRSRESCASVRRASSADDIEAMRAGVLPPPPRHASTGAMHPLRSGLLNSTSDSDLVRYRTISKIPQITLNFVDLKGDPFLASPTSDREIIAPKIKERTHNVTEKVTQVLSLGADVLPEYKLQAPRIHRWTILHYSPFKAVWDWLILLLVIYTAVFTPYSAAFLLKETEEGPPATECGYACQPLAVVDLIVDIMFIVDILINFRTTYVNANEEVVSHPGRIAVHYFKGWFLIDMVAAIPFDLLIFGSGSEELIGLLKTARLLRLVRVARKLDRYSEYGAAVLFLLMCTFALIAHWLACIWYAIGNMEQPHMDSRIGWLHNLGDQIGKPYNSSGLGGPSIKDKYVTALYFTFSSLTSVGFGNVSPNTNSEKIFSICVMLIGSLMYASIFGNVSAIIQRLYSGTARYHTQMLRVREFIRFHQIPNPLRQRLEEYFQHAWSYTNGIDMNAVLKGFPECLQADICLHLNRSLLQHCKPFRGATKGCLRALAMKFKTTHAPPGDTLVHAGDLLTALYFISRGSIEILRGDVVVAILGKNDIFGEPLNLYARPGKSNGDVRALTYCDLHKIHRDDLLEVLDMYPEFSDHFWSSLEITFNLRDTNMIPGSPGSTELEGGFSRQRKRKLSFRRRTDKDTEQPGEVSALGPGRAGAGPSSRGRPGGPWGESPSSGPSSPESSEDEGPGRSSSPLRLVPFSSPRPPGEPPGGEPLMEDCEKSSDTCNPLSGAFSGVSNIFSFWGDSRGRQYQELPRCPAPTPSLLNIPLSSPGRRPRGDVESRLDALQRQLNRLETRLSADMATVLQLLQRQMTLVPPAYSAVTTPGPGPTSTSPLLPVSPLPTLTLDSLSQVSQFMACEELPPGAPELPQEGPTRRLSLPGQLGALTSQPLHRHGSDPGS

Row | Compound | bioavailability [7] | microsomal CLint [8] | IC50 (Renin [10]) | IC50 (Renin [11]) | microsomal CLint [12] | further results
1 | CCOC[C@@H](CC(C)C)NC(=O)[C@@H]1CNC[C@H](C(=O)N(c2cc(OCC)c(CC)cn2)C2CC2)[C@@H]1O [listing 1 of 2 here] |  |  |  |  |  | logD [1]: 0.93
2 | CCOC[C@@H](CC(C)C)NC(=O)[C@@H]1CNC[C@H](C(=O)N(c2ccc(C(C)C)cn2)C2CC2)C1 [listing 1 of 2 here] |  |  |  |  |  | logD [1]: 4.9
3 | CCOC[C@@H](CC(C)C)NC(=O)[C@@H]1CNC[C@H](C(=O)N(c2ccc(C(C)C)cn2)C2CC2)C1.O=C(O)/C=C/C(=O)O | 45% |  |  |  |  | Vd [2]: 7.2 L/kg; AUC/dose (Rattus norvegicus [3]): 296 nM·h/mg/kg; Cmax/dose (Rattus norvegicus [4]): 63 nM/mg/kg; clearance [5]: 60 mL/min/kg; half-life [6]: 6.5 h
4 | CCOC[C@@H](CC(C)C)NC(=O)[C@@H]1CNC[C@H](C(=O)N(c2cc(OC)c(C(C)C)cn2)C2CC2)C1 [listing 1 of 2 here] |  | 15 µL/min/mg | 0.4 nM | 0.2 nM | 101 µL/min/mg | IC50 [9]: > 30000 nM
5 | CCOC[C@@H](CC(C)C)NC(=O)[C@@H]1CNC[C@H](C(=O)N(c2cc3c(cc2F)OC(C)(C)C(=O)N3CCCOC)C2CC2)C1.Cl | 20% | 61 µL/min/mg |  |  | 198 µL/min/mg | Vd [2]: 12 L/kg; AUC/dose (Rattus norvegicus [3]): 49 nM·h/mg/kg; Cmax/dose (Rattus norvegicus [4]): 12 nM/mg/kg; clearance [5]: 122 mL/min/kg; half-life [6]: 1.9 h
6 | Cc1ccc(S(=O)(=O)N[C@@H]2CNC[C@H](C(=O)NC(c3ccccc3)c3ccccc3)C2)cc1 (racemic) |  |  | 15200 nM | 1200 nM |  | 
7 | CCOC[C@@H](CC(C)C)NC(=O)[C@@H]1CNC[C@H](C(=O)N(c2cc(OCC)c(CC)cn2)C2CC2)[C@@H]1O.O=C(O)/C=C/C(=O)O | 60% |  |  |  |  | Vd [2]: 2.6 L/kg; AUC/dose (Rattus norvegicus [3]): 1630 nM·h/mg/kg; Cmax/dose (Rattus norvegicus [4]): 252 nM/mg/kg; clearance [5]: 12.3 mL/min/kg; half-life [6]: 5.9 h
8 | CCOC[C@@H](CC(C)C)NC(=O)[C@@H]1CNC[C@H](C(=O)N(c2cc(OCC)c(CC)cn2)C2CC2)[C@@H]1O [listing 2 of 2 here] |  | 22 µL/min/mg | 2.5 nM | 0.6 nM | 54 µL/min/mg | 
9 | CCOC[C@@H](CC(C)C)NC(=O)[C@@H]1CNC[C@H](C(=O)N(c2ccc(C(C)C)cn2)C2CC2)C1 [listing 2 of 2 here] |  | < 3.4 µL/min/mg | 1.1 nM |  | 13 µL/min/mg | IC50 [9]: 7000 nM
10 | COCCCn1cc(CN(C(=O)[C@H]2CNC[C@@H](C(=O)NCC(C)C)C2)C2CC2)c2ccccc21 (racemic) |  |  | 115 nM | 15 nM |  | 
11 | Cc1ccc(S(=O)(=O)N[C@@H]2CNC[C@H](C(=O)N(Cc3cccc(Cl)c3Cl)C3CC3)C2)cc1 (racemic) |  |  |  | 2600 nM |  | 
12 | CCOC[C@@H](CC(C)C)NC(=O)[C@@H]1CNC[C@H](C(=O)N(c2cc(OC)c(C(C)C)cn2)C2CC2)C1 [listing 2 of 2 here] |  |  |  |  |  | logD [1]: 2.2
13 | CCOC[C@@H](CC(C)C)NC(=O)[C@@H]1CNC[C@H](C(=O)N(c2cc(OC)c(C(C)C)cn2)C2CC2)[C@@H]1O [listing 1 of 2 here] |  | 22 µL/min/mg | 2 nM |  | 142 µL/min/mg | 
14 | COCCCn1cc(CN(C(=O)[C@H]2CNC[C@@H](C(=O)N[C@@H](CO)CC(C)C)C2)C2CC2)c2ccccc21 | 0.4% | 157 µL/min/mg | 8 nM | 3 nM | 111 µL/min/mg | 
15 | COCCCn1cc(CN(C(=O)[C@H]2CNC[C@@H](C(=O)N[C@H](CCO)c3ccccc3)C2)C2CC2)c2ccccc21 | < 0.1% | 173 µL/min/mg | 1 nM | 0.4 nM | 109 µL/min/mg | 
16 | CCOC[C@@H](CC(C)C)NC(=O)[C@@H]1CNC[C@H](C(=O)N(c2cc(OCCCOC)c(C(C)C)cn2)C2CC2)C1.Cl | 19% | 53 µL/min/mg | 1 nM | 0.4 nM | 96 µL/min/mg | Vd [2]: 11 L/kg; AUC/dose (Rattus norvegicus [3]): 93 nM·h/mg/kg; Cmax/dose (Rattus norvegicus [4]): 18 nM/mg/kg; clearance [5]: 80 mL/min/kg; half-life [6]: 4.3 h
17 | CCOC[C@@H](CC(C)C)NC(=O)[C@@H]1CNC[C@H](C(=O)N(c2cc(OCCCOC)c(C(C)C)cc2F)C2CC2)C1 |  | 115 µL/min/mg | 2 nM | 0.3 nM | 214 µL/min/mg | 
18 | COCCCn1cc(CN(C(=O)[C@H]2CNC[C@@H](NC(=O)CC(C)C)C2)C2CC2)c2ccccc21 (racemic) |  |  |  | 300 nM |  | 
19 | CCOC[C@@H](CC(C)C)NC(=O)[C@@H]1CNC[C@H](C(=O)N(c2cc(OCC)c(CC)cn2)C2CC2)C1 [listing 1 of 2 here] |  |  |  |  |  | logD [1]: 2.1
20 | CCOC[C@@H](CC(C)C)NC(=O)[C@@H]1CNC[C@H](C(=O)N(c2cc(OCC)c(CC)cn2)C2CC2)C1.O=C(O)C(O)C(O)C(=O)O | 44% |  |  |  |  | Vd [2]: 4.6 L/kg; AUC/dose (Rattus norvegicus [3]): 690 nM·h/mg/kg; Cmax/dose (Rattus norvegicus [4]): 155 nM/mg/kg; clearance [5]: 23.3 mL/min/kg; half-life [6]: 7.4 h
21 | CC(C)(C)OC(=O)N[C@@H]1CNC[C@H](C(=O)N(Cc2cccc(Cl)c2Cl)C2CC2)C1 (racemic) |  |  |  | 200 nM |  | 
22 | CCOC[C@@H](CC(C)C)NC(=O)[C@@H]1CNC[C@H](C(=O)N(c2ccc(C(C)C)c(OCCCOC)n2)C2CC2)C1 |  | 289 µL/min/mg | 6 nM | 0.8 nM | 252 µL/min/mg | IC50 [9]: 3300 nM
23 | CCOC[C@@H](CC(C)C)NC(=O)[C@@H]1CNC[C@H](C(=O)N(c2cc(OC)c(C(C)C)cn2)C2CC2)[C@@H]1O [listing 2 of 2 here] | 61% |  |  |  |  | Vd [2]: 6.1 L/kg; AUC/dose (Rattus norvegicus [3]): 511 nM·h/mg/kg; Cmax/dose (Rattus norvegicus [4]): 74 nM/mg/kg; logD [1]: 0.93; clearance [5]: 40 mL/min/kg; half-life [6]: 7.7 h
24 | CCOC[C@@H](CC(C)C)NC(=O)[C@@H]1CNC[C@H](C(=O)N(c2ccc(C(C)C)cn2)C2CC2)[C@@H]1O [listing 1 of 2 here] |  | < 3.4 µL/min/mg | 0.6 nM | 0.2 nM | 52 µL/min/mg | IC50 [9]: > 30000 nM
25 | CCOC[C@@H](CC(C)C)NC(=O)[C@@H]1CNC[C@H](C(=O)N(c2ccc(C(C)C)cc2)C2CC2)C1 |  |  | 5340 nM | 4 nM |  | 
26 | COCCCn1cc(CN(C(=O)[C@H]2CNC[C@@H](C(=O)NCCC(C)C)C2)C2CC2)c2ccccc21 | 29% | 194 µL/min/mg | 40 nM | 3 nM | 141 µL/min/mg | 
27 | CCOC[C@@H](CC(C)C)NC(=O)[C@@H]1CNC[C@H](C(=O)N(c2cc(OC)c(C(C)C)cn2)C2CC2)C1.O=C(O)C(O)C(O)C(=O)O | 39% |  |  |  |  | Vd [2]: 4.3 L/kg; AUC/dose (Rattus norvegicus [3]): 324 nM·h/mg/kg; Cmax/dose (Rattus norvegicus [4]): 68 nM/mg/kg; clearance [5]: 40 mL/min/kg; half-life [6]: 7 h
28 | COCCCn1cc(CN(C(=O)[C@H]2CNC[C@@H](C(=O)Nc3c(C)cccc3OC)C2)C2CC2)c2ccccc21 |  | 679 µL/min/mg | 2 nM | 0.4 nM | 533 µL/min/mg | 
29 | CCOC[C@@H](CC(C)C)NC(=O)[C@@H]1CNC[C@H](C(=O)N(c2ccc(C(C)C)cn2)C2CC2)[C@@H]1O [listing 2 of 2 here] |  |  |  |  |  | Activity (Rattus norvegicus [13]): Dose-dependent effect; Activity (Rattus norvegicus [14]): Active
30 | CCOC[C@@H](CC(C)C)NC(=O)[C@@H]1CNC[C@H](C(=O)N(c2cc(OCC)c(CC)cn2)C2CC2)C1 [listing 2 of 2 here] |  | 46 µL/min/mg |  | 0.2 nM | 62 µL/min/mg | IC50 [9]: > 30000 nM
